# What was measured:
# Type in all cases: cell-based
# [1] = test system: Actinobacillus actinomycetemcomitans Y4; assay: Antibacterial test, propagation by turbidity in broth (Example 1); settings: medium containing 0.1 mM or 1.0 mM trifluoromethionine, FIG. 5
# [2] = test system: Actinobacillus actinomycetemcomitans Y4; assay: Minimum growth-inhibiting concentration on agar media (Example 2); settings: A. actinomycetemcomitans Y4, anaerobic, 37° C., 48-72 hours
# Method: (§1) 3 ml of GAM broth (Nissui Medical) containing 5 μg/ml of hemin and 1 μg/ml of menadione was separately inoculated with one platinum loop each of subcultures of causative bacteria of periodontal disease, strains Porphyromonas gingivalis W83, W50, ATCC49417 and ATCC33277, strain Actinobacillus actinomycetemcomitans Y4, and strains Fusobacterium nucleatum ATCC10953 and ATCC25586, followed by incubation at 37° C. under anaerobic conditions (10% CO2, 10% H2 and 80% N2) overnight. Then, the resulting cultures were diluted to 10^−8, 10^−6, 10^−4 and 10^−3 to make inoculating bacterial solutions, respectively.
# (§2) Agar media containing 400, 200, 100, 50, 25, 10 and 5 μg/ml of TFM, respectively, were prepared and streaked, about 2 cm long, with a platinum loop each of the above-prepared inoculating bacterial solutions, followed by incubation under the same anaerobic conditions as above at 37° C. for 48-72 hours to evaluate growth of the bacteria.
# [3] = test system: Fusobacterium nucleatum ATCC25586; assay: as above; settings: F. nucleatuium ATCC 25586, anaerobic, 37° C., 48-72 hours
# Method: as §1, §2
# [4] = test system: Porphyromonas gingivalis ATCC33277; assay: as above; settings: P. gingivalis ATCC 33277, anaerobic, 37° C., 48-72 hours
# Method: as §1, §2
# [5] = test system: Porphyromonas gingivalis ATCC49417; assay: as above; settings: P. gingivalis ATCC 49417, anaerobic, 37° C., 48-72 hours
# Method: as §1, §2
# [6] = test system: Porphyromonas gingivalis W50; assay: as above; settings: P. gingivalis W50, anaerobic, 37° C., 48-72 hours
# Method: as §1, §2
# [7] = test system: Porphyromonas gingivalis W83; assay: as above; settings: P. gingivalis W83, anaerobic, 37° C., 48-72 hours
# Method: as §1, §2
# S. sanguis ST160 = assay: as above; settings: Brain Heart Infusion, 5% CO2
# Method: as §1, §2
# (§3) Streptococcus sobrinus MT8246, Streptococcus sanuis ST160, Streptococcus mutans Xc and Streptococcus salivarius HHT were likewise incubated in Brain Heart Infusion (Difco) in the same manner as above except that the incubation was conducted in the presence of 5% CO2 to evaluate the growth.
# Streptococcus mutans Xc = assay: as above; settings: S. mutans Xc; Brain Heart Infusion, 5% CO2
# Method: as §1, §2, §3
# [8] = test system: Streptococcus salivarius HHT; assay: as above; settings: S. salivarius HHT; Brain Heart Infusion, 5% CO2
# Method: as §1, §2, §3
# [9] = test system: Streptococcus sobrinus MT8246; assay: as above; settings: S. sobrinus MT8246; Brain Heart Infusion, 5% CO2
# Method: as §1, §2, §3
# [10] = test system: Bacillus subtilis ATCC6633; assay: MIC by agar plate dilution method on standard strains (Example 3)
# Method: (§4) Drug solutions at a concentration 10 times as high as the maximum applicable concentration were prepared as original solutions of test drugs given in Table 2 (as to solvents used for this purpose, reference should be made also to Table 2). Serial two-fold dilution series of the original solutions were prepared at desired stages, and 1 ml each of the diluted drug solutions was added to 9 ml of media given in Table 3 to prepare drug plates. […] • 1) Bacterial solutions stocked at −80° C. were inoculated on agar media (as to media used, reference should be made to Table 3), and then incubated at 37° C. overnight. When desired, subculturing was conducted once more on the same agar media (by overnight incubation at 37° C.). • 2) Colonies growing on the agar media were sampled by a platinum loop, suspended in liquid media (reference should be made to Table 3) and statically incubated at 37° C. for 18 hours (preculturing). • 3) Preculturing was continued up to McFarland 0.5 (McFarland 0.5=about 10^8 CFU/ml), and then the culture broths were diluted with Muellar Hinton Broth to make 10^6 CFU/ml. 5 μl each of the diluted solutions were inoculated on the above-mentioned drug plates by an inoculator Microplanter. […] Thus, bacterial solutions at about 10^8 CFU/ml can be easily prepared by use of McFarland 0.5. Bacterial solutions at such a turbidity are commercially available, but can be easily prepared.
# [11] = test system: Enterococcus faecalis ATCC29247; assay: as above
# Method: as §4
# [12] = test system: Enterococcus faecium ATCC19434; assay: as above
# Method: as §4
# [13] = test system: Escherichia coli ATCC25922; assay: as above
# Method: as §4
# [14] = test system: Haemophilus influenzae ATCC33391; assay: as above
# Method: as §4
# [15] = test system: Haemophilus influenzae ATCC49766; assay: as above
# Method: as §4
# [16] = test system: Klebsiella pneumoniae ATCC700603; assay: as above
# Method: as §4
# [17] = test system: Moraxella (Branhamella) catarrhalis ATCC43617; assay: as above
# Method: as §4
# [18] = test system: Staphylococcus aureus ATCC29247; assay: as above
# Method: as §4
# [19] = test system: Streptococcus agalactiae ATCC13813; assay: as above
# Method: as §4
# [20] = test system: Streptococcus pneumoniae ATCC6301; assay: as above
# Method: as §4
# [21] = test system: Streptococcus pneumoniae ATCC6303; assay: as above
# Method: as §4
# [22] = test system: Streptococcus pyogenes ATCC12344; assay: as above
# Method: as §4
# [23] = test system: Streptococcus pyogenes ATCC12353; assay: as above
# Method: as §4
# [24] = test system: Streptococcus pyogenes ATCC12385; assay: as above
# Method: as §4
smiles,measurement,setting,value
"N[C@@H](CCSC(F)(F)F)C(=O)O [TFM, Trifluoromethionine]","antibacterial effect (propagation of bacteria, absorbance at 550 nm)",[1],remarkable antibacterial effects
same,Minimum growth-inhibiting concentration,[2],10 µg/mL
same,Minimum growth-inhibiting concentration,[3],25 µg/mL
same,Minimum growth-inhibiting concentration,[4],5 µg/mL
same,Minimum growth-inhibiting concentration,[5],5 µg/mL
same,Minimum growth-inhibiting concentration,[6],5 µg/mL
same,Minimum growth-inhibiting concentration,[7],5 µg/mL
same,Minimum growth-inhibiting concentration,S. sanguis ST160,>400 µg/mL
same,Minimum growth-inhibiting concentration,Streptococcus mutans Xc,>400 µg/mL
same,Minimum growth-inhibiting concentration,[8],>400 µg/mL
same,Minimum growth-inhibiting concentration,[9],>400 µg/mL
same,MIC,[10],>400 µg/mL
same,MIC,[11],>400 µg/mL
same,MIC,[12],>400 µg/mL
same,MIC,[13],>400 µg/mL
same,MIC,[14],50 µg/mL
same,MIC,[15],25 µg/mL
same,MIC,[16],>400 µg/mL
same,MIC,[17],100 µg/mL
same,MIC,[18],>400 µg/mL
same,MIC,[19],>400 µg/mL
same,MIC,[20],>400 µg/mL
same,MIC,[21],>400 µg/mL
same,MIC,[22],>400 µg/mL
same,MIC,[23],>400 µg/mL
same,MIC,[24],>400 µg/mL

# From patent US20050175550A1, “Compositions for oral use” (priority 2000, published 2005)
